“Also recorded” adds a separate entry of the source.
Experiments:
[1] = molecular target: T1, Δ^5 -3-ketosteroid isomerase (EC 5.3.3.1) (Comamonas testosteroni, UniProt P00947); test: irreversible inactivation of crystalline purified bacterial Δ^5-3-ketosteroid isomerase by acetylenic steroids (Kitz and Wilson kinetic analysis); format: biochemical, Pseudomonas testosteroni
Description: The inactivation is progressive with time, and half-lives in the range of 150-1320 sec are observed at concentrations of 20-200 μM of the two inhibitors. The enzymatic activities of control vessels which received only equivalent volumes of 1,4-dioxane remained constant at initial activities.
The initial rates of inactivation of the isomerase by (1) and (2) can be analyzed by the method of Kitz and Wilson^8 since very satisfactory pseudo-first-order behavior was observed. It is assumed that [I] (inhibitor) >> [E] (enzyme), that [E.I] (the reversible enzyme-inhibitorcomplex) is at all times in equilibrium with enzyme and inhibitor, and that ^k cat >> ^k inh. The scheme for the formation of EI' (the irreversible enzyme-inhibitor derivative) may then be represented as follows.
If the enzyme-inhibitor solution is diluted extensively prior to assay, the active enzyme (ε) = [E] + [E.I]. Then -d(ε)/dt = k3 [E.I.], and K1 = ([E][I])/[EI]. Thus [formula] where Et = total amount of enzyme in system.
If one defines [formula] Consequently double reciprocal plots of kapp with respect to [I] should be linear, with slopes and intercepts permitting the determination of K1 and k3 where the latter is the overall rate constant for the irreversible inhibition process.
From plots of 1n ε (residual enzymatic activity) vs. time, kapp has been determined at five inhibitor concentrations for both compounds 1 and 2, i.e. estryne and pregnyne. Strict linearity of the semilogarithmic plots has been observed in all cases, over greater than two half-lives. A plot of 1/kapp vs. 1/[I] was linear and gave k3 and K1 (FIG. 1). For compound 1, K1 = 56 μM and k3 = 1.98 × 10^-3 sec^-1, and for compound 2, K1 = 32 μM and k3 = 4.10 × 10^-3 sec^-1.
Studies were performed using crystalline purified bacterial Δ^5 -3-ketosteroid isomerase (from P. testosteroni), under pseudo first order conditions using the kinetic analysis of R. Kitz and I. B. Wilson [J. Biol. Chem., 237, 3245 (1964)].

[2] = molecular target: T2, cytosol androgen receptor (prostate androgen binding protein) (Rattus norvegicus, UniProt P15207); test: inhibition of nuclear uptake of ^3H-dihydrotestosterone in ventral prostate minces (binding to the prostatic androgen receptor)
T2 construct: freshly minced ventral prostate tissue obtained from rats castrated 24 hours before sacrifice; from tissue; host or cells: ventral prostate minces of castrated rats
T2 sequence (P15207 1-902): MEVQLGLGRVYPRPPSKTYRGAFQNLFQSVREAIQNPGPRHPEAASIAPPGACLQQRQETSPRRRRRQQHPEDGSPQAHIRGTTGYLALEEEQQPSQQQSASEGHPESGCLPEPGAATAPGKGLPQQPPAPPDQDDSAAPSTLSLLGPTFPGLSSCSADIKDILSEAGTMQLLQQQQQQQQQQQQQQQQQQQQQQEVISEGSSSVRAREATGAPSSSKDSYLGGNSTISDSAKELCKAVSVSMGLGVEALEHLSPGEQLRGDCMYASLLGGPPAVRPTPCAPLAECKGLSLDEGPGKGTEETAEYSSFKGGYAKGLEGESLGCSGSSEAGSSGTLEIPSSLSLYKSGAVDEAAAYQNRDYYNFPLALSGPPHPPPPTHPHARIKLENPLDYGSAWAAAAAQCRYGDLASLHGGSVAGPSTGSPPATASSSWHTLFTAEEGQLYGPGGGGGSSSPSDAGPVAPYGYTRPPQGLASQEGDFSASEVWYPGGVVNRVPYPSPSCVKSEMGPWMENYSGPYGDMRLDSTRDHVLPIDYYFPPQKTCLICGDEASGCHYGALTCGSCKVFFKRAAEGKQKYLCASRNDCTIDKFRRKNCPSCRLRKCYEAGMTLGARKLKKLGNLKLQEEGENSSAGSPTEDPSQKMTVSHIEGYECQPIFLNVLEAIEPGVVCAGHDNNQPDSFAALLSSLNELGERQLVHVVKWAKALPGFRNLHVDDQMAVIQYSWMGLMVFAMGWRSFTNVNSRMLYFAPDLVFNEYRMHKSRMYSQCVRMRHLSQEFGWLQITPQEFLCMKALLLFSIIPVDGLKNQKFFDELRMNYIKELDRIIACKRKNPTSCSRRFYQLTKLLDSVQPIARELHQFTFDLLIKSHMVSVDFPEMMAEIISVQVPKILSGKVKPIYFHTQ
Description: The binding to the cytosol androgen receptor was determined by the procedure of Fang (5) with modification. […] The amount of radioactivity in the nuclei is expressed as observed counts per minute per 100 μg DNA.

[3] = molecular target: T1, Δ^5 -3-ketosteroid isomerase (EC 5.3.3.1); test: irreversible inactivation of crystalline purified bacterial Δ^5-3-ketosteroid isomerase by acetylenic steroids (Kitz and Wilson kinetic analysis); format: biochemical, Pseudomonas testosteroni; details: 24 hr at 4° vs. 1 mM potassium phosphate buffer, pH 7.0
[4] = tested on: endogenous androgen biosynthesis; test: study in intact male rats: weights of sex accessory tissue and other organs; format: in vivo, male Sprague-Dawley rats; details: 7 days; for Adrenal weight (± Sem): control 28 ± 2; for Dorsal Lateral Prostate weight (± Sem): control 252 ± 14; for Seminal Vesicles weight (± Sem): control 470 ± 26; for Ventral Prostate weight (± Sem): control 482 ± 24; for Kidney weight (± Sem): control 1410 ± 38; for Testis weight (± Sem): control 1580 ± 23
Description: Studies with intact male Sprague-Dawley rats (300g body weight) are illustrated for compounds (1) and (2).
Similarly, compound (2), […] rats at a dosage of 20mg per kilo for 7 days produced 20% reduction in weight of the ventral prostate and 28% reduction of the dorsal lateral prostate.
The following data illustrates the inhibiting effect of estryne and pregnyne on Δ^5 -3-ketosteroid isomerase (EC 5.3.3.1) as evidenced by a depression of the wet weight of the sex accessory tissue in the mature male rat treated with the estryne and pregnyne.
A. Male rats were used to assess the effect of estryne on endogenous androgen biosynthesis at varying doses (1-20 mg/kg body weight). […] On the eighth day the animals were sacrificed and the ventral prostate, dorsal lateral prostate, seminal vesicles, testes, kidneys, and adrenals were removed and weighed. Samples of each tissue were preserved in 10% buffered formalin for histological examination.
B. Male rats were treated with 19-norpregnyne by a regimen exactly as described for the estryne.

[5] = 20mg per kilo per day, i.p. in propylene glycol

T1 sequence (P00947 whole entry, stated change not applied): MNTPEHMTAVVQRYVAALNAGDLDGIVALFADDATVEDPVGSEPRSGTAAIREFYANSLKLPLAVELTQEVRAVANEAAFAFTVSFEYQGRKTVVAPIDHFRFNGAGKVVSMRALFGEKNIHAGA

## CC(=O)[C@H]1CC[C@H]2[C@@H]3CC#CCC(=O)CCC(=O)[C@H]3CC[C@]12C [Compound 2, 5,10-seco-19-norpregn-5-yne-3,10,20-trione]
[1]; in words
  irreversible inhibition / inactivation of the enzyme: rapid irreversible inhibition; also recorded: rapid irreversible and complete inactivation of the enzyme; also recorded: Powerful irreversible inhibition
[1]; pH 7.0, 20-200 μM of the two inhibitors, in 1,4-dioxane
  half-life of enzyme inactivation: 2.5 to 22 min
[1]; pH 7, pseudo first order conditions, five inhibitor concentrations (10-fold range), read-out: k3, overall rate constant for the irreversible inhibition process
  kinact: 0.0041 s⁻¹
[1]; pseudo first order conditions, five inhibitor concentrations (10-fold range), read-out: K1 (KI), inhibitor dissociation constant
  Ki: 32 µM
[2]; rat, 1 h, pH 7.4, steroid 2 × 10^-6 M with ^3H-DHT 2 × 10^-9 M, read-out: nuclear uptake of ^3H-DHT, % Control
  remaining activity at 2 µM: 137%
[2]; steroid 2 × 10^-6 M with ^3H-DHT 2 × 10^-9 M, control 8,471
  CPM/100 DNA (nuclear uptake of ^3H-DHT): 11,636 CPM/100 DNA
[2]; ventral prostate minces, in words
  inhibition of androgen uptake by the nuclei: no inhibition of androgen uptake by the nuclei
[3]
  restoration of enzymatic activity by prolonged dialysis: inability to restore enzymatic activity
[4]; [5]
  reduction in weight of the dorsal lateral prostate: 28%
  reduction in weight of the ventral prostate: 20%
[4]; 1-20 mg/kg, in words
  dose dependence of the effect on prostatic weight: dose dependent
[4]; pregnyne 1 mg/kg daily i.p.
  Adrenal weight (± Sem): 22 ± 2 mg
  Dorsal Lateral Prostate weight (± Sem): 205 ± 14 mg
  Seminal Vesicles weight (± Sem): 423 ± 21 mg
  Ventral Prostate weight (± Sem): 405 ± 18 mg
  Kidney weight (± Sem): 1360 ± 48 mg
  Testis weight (± Sem): 1530 ± 68 mg
[4]; pregnyne 5 mg/kg daily i.p.
  Adrenal weight (± Sem): 25 ± 2 mg
  Dorsal Lateral Prostate weight (± Sem): 208 ± 11 mg
  Seminal Vesicles weight (± Sem): 384 ± 17 mg
  Ventral Prostate weight (± Sem): 402 ± 27 mg
  Kidney weight (± Sem): 1370 ± 42 mg
  Testis weight (± Sem): 1510 ± 44 mg
[4]; pregnyne 10 mg/kg daily i.p.
  Adrenal weight (± Sem): 26 ± 1 mg
  Dorsal Lateral Prostate weight (± Sem): 182 ± 19 mg
  Seminal Vesicles weight (± Sem): 390 ± 14 mg
  Ventral Prostate weight (± Sem): 386 ± 20 mg
  Kidney weight (± Sem): 1310 ± 60 mg
  Testis weight (± Sem): 1530 ± 53 mg
[4]; pregnyne 20 mg/kg daily i.p.
  Adrenal weight (± Sem): 31 ± 2 mg
  Dorsal Lateral Prostate weight (± Sem): 180 ± 14 mg
  Seminal Vesicles weight (± Sem): 380 ± 9 mg
  Ventral Prostate weight (± Sem): 360 ± 21 mg
  Kidney weight (± Sem): 1360 ± 43 mg
  Testis weight (± Sem): 1480 ± 63 mg

From patent US4087461A, “Anti-androgenic steroids” (The Johns Hopkins University, priority 1977, dated 1978)
